Measured values from patent publication US12577594B2, “Engineered microorganisms and methods for improved aldehyde dehydrogenase activity” (Genomatica, Inc., priority 2019, dated 2026).

Columns and labels:
Assay in all cases: Kinetic characterization of purified Ald with varied substrate CoA (Example 4, Table 5)
[1] = system: Acidaminococcus massiliensis aldehyde dehydrogenase (Ald), SEQ ID NO: 28; format: biochemical; settings: for Catalytic efficiency kcat/KM / Km / Turnover number kcat: purified protein, substrate CoA varied, conditions similar to Example 1 (0.1 M Tris-HCl, pH 7.5)
Procedure: (§1) The lysates (5 μl) were added to an assay mixture to result in a total volume of 20 μL with final concentrations of 0.1 M Tris-HCl, pH 7.5, 2.5 mM adipyl-CoA (AdCoA), and either 0.5 mM NADH or 0.5 mM NADPH. This assay was used to screen all of the Ald enzyme candidates. Some Ald candidates were also assayed using succinyl-CoA (SuCoA) or acetyl-CoA (AcCoA) as substrates. AdCoA, SuCoA, and AcCoA were obtained from commercial suppliers. Activity was monitored by a linear decrease in fluorescence of NADH or NADPH in the presence of the CoA substrate.
(§2) Kinetic characterization was done under similar conditions as the lysate screening described in Example 1; however, in this case purified protein was used instead of cell lysates. Each of the Acidaminococcus massiliensis Ald (SEQ ID NO:28), the Collinsella sp. GD7 Ald (SEQ ID NO:60), and the Romboutsia lituseburensis DSM Ald (SEQ ID NO:107) was purified using affinity chromatography. In these assays, the concentration each of the substrate CoAs was varied to determine the turnover number (kcat), the affinity of the enzyme for the substrate (KM) of the enzyme, the catalytic efficiency (kcat/KM) of each selected Ald enzyme for each substrate were determined and shown in the Table 5 below.
(§3) Catalytic efficiency (kcat/KM) of the various aldehyde dehydrogenases using various substrates were plotted in a bar graph for comparison (FIG. 3A).

[2] = system: Collinsella sp. GD7 aldehyde dehydrogenase (Ald), SEQ ID NO: 60; format: biochemical; settings: for Catalytic efficiency kcat/KM / Km / Turnover number kcat: purified protein, substrate CoA varied, conditions similar to Example 1 (0.1 M Tris-HCl, pH 7.5)
Procedure: as §1, §2, §3

[3] = molecular target: Romboutsia lituseburensis DSM aldehyde dehydrogenase (Ald), SEQ ID NO: 107 (Romboutsia lituseburensis, UniProt A0A1G9MGA8); format: biochemical; settings: ratio of kcat/KM
Procedure: as §1, §2, §3

[4] = system: CC(=O)SCCNC(=O)CCNC(=O)[C@H](O)C(C)(C)COP(=O)(O)OP(=O)(O)OC[C@H]1O[C@@H](n2cnc3c(N)ncnc32)[C@H](O)[C@@H]1OP(=O)(O)O; format: biochemical, Romboutsia lituseburensis DSM; settings: other: purified protein, conditions similar to Example 1 (0.1 M Tris-HCl, pH 7.5)
Procedure: as §1, §2, §3

[5] = system: CC(C)(COP(=O)(O)OP(=O)(O)OC[C@H]1O[C@@H](n2cnc3c(N)ncnc32)[C@H](O)[C@@H]1OP(=O)(O)O)[C@@H](O)C(=O)NCCC(=O)NCCSC(=O)CCC(=O)O; format: biochemical, Romboutsia lituseburensis DSM; settings: other: purified protein, conditions similar to Example 1 (0.1 M Tris-HCl, pH 7.5)
Procedure: as §1, §2, §3

[6] = system: CC(C)(COP(=O)(O)OP(=O)(O)OC[C@H]1O[C@@H](n2cnc3c(N)ncnc32)[C@H](O)[C@@H]1OP(=O)(O)O)[C@@H](O)C(=O)NCCC(=O)NCCSC(=O)CCCCC(=O)O; format: biochemical, Romboutsia lituseburensis DSM; settings: other: purified protein, conditions similar to Example 1 (0.1 M Tris-HCl, pH 7.5)
Procedure: as §1, §2, §3

Compound	Catalytic efficiency kcat/KM [1] [M⁻¹ s⁻¹]	Km [1] [µM]	Turnover number kcat [1] [s⁻¹]	Catalytic efficiency kcat/KM [2] [M⁻¹ s⁻¹]	Km [2] [µM]	Turnover number kcat [2] [s⁻¹]	also measured
CC(C)(COP(=O)(O)OP(=O)(O)OC[C@H]1O[C@@H](n2cnc3c(N)ncnc32)[C@H](O)[C@@H]1OP(=O)(O)O)[C@@H](O)C(=O)NCCC(=O)NCCSC(=O)CCC(=O)O [Succinyl-CoA]	290	790	0.23	26	400	0.010	–
CC(=O)SCCNC(=O)CCNC(=O)[C@H](O)C(C)(C)COP(=O)(O)OP(=O)(O)OC[C@H]1O[C@@H](n2cnc3c(N)ncnc32)[C@H](O)[C@@H]1OP(=O)(O)O [Acetyl-CoA]	100	380	0.040	1.6	> 2000	–	–
CC(C)(COP(=O)(O)OP(=O)(O)OC[C@H]1O[C@@H](n2cnc3c(N)ncnc32)[C@H](O)[C@@H]1OP(=O)(O)O)[C@@H](O)C(=O)NCCC(=O)NCCSC(=O)CCCCC(=O)O [Adipyl-CoA]	3000	810	2.5	150	100	0.015	Catalytic efficiency (kcat/KM) for adipyl-CoA over succinyl-CoA ([3]; FIG. 3B): higher catalytic efficiency for adipyl-CoA over succinyl-CoA; Catalytic efficiency (kcat/KM) for adipyl-CoA over acetyl-CoA ([3]; FIG. 3C): higher catalytic efficiency for adipyl-CoA over acetyl-CoA; Catalytic efficiency (kcat/KM) for adipyl-CoA over succinyl-CoA ([1]; ratio of kcat/KM, FIG. 3B): higher catalytic efficiency for adipyl-CoA over succinyl-CoA; Catalytic efficiency (kcat/KM) for adipyl-CoA over acetyl-CoA ([1]; ratio of kcat/KM, FIG. 3C): higher catalytic efficiency for adipyl-CoA over acetyl-CoA; Catalytic efficiency (kcat/KM) for adipyl-CoA over succinyl-CoA ([2]; ratio of kcat/KM, FIG. 3B): higher catalytic efficiency for adipyl-CoA over succinyl-CoA; Catalytic efficiency (kcat/KM) for adipyl-CoA over acetyl-CoA ([2]; ratio of kcat/KM, FIG. 3C): higher catalytic efficiency for adipyl-CoA over acetyl-CoA
Romboutsia lituseburensis DSM aldehyde dehydrogenase (Ald), SEQ ID NO: 107 (Romboutsia lituseburensis DSM 797)	–	–	–	–	–	–	Km [4]: 310 µM; kcat [4]: 0.013 s⁻¹; kcat/Km [4]: 40 M⁻¹ s⁻¹; Km [5]: 220 µM; kcat [5]: 0.056 s⁻¹; kcat/Km [5]: 250 M⁻¹ s⁻¹; Km [6]: 240 µM; kcat [6]: 1.0 s⁻¹; kcat/Km [6]: 4000 M⁻¹ s⁻¹
